Reference: ChEMBL document CHEMBL1134101, “The cyclohexene ring as bioisostere of a furanose ring: synthesis and antiviral activity of cyclohexenyl nucleosides” (Bioorg Med Chem Lett, 2001)
In brackets after ≈: the same amount, converted by molar mass.

Experiments:
Cytomegalovirus [1] = test: Effective concentration required against HCMV AD169 for antiviral activity; type: functional, organism-based, Human betaherpesvirus 5
Cytomegalovirus [2] = test: Tested for antiviral activity against HCMV (AD169); type: functional, organism-based, Human betaherpesvirus 5
Human alphaherpesvirus 1 [3] = test: Tested for antiviral activity against HSV-1 (KOS); type: functional, organism-based
Human alphaherpesvirus 2 = test: Tested for antiviral activity against HSV-2 (G); type: functional, organism-based
Hepatitis B virus = test: Tested for antiviral activity against HBV (Hep AD79); type: functional, organism-based
Human alphaherpesvirus 1 [4] = test: Tested for antiviral activity against HSV-1 (TK-KOS); type: functional, organism-based
Human alphaherpesvirus 3 [5] = test: Tested for antiviral activity against VZV ([…]); type: functional, organism-based
Human alphaherpesvirus 3 [6] = test: Tested for antiviral activity against VZV (YS); type: functional, organism-based
Cytomegalovirus [7] = test: Effective concentration required against HCMV strain for antiviral activity; type: functional, organism-based; conditions: Human betaherpesvirus 5
[8] = Human betaherpesvirus 5, read-out: EC50
[9] = Human alphaherpesvirus 1, read-out: IC50
[10] = Human alphaherpesvirus 2, read-out: IC50
[11] = Hepatitis B virus, read-out: IC50

Row | Structure (SMILES) | EC50 (Cytomegalovirus [1]; [8]) | IC50 (Cytomegalovirus [2]; Human betaherpesvirus 5, read-out: IC50) | IC50 (Human alphaherpesvirus 1 [3]; [9]) | IC50 (Human alphaherpesvirus 2; [10]) | IC50 (Hepatitis B virus; [11]) | IC50 (Human alphaherpesvirus 1 [4]; [9]) | EC50 (Cytomegalovirus [1]) | IC50 (Cytomegalovirus [2]) | IC50 (Human alphaherpesvirus 1 [3]) | IC50 (Human alphaherpesvirus 2) | IC50 (Human alphaherpesvirus 3 [5]) | IC50 (Human alphaherpesvirus 3 [6]) | IC50 (Hepatitis B virus) | IC50 (Human alphaherpesvirus 1 [4]) | EC50 (Cytomegalovirus [7])
1 | Nc1nc2c(ncn2COC(CO)CO)c(=O)[nH]1 [GANCICLOVIR] | 0.77 µg/mL (≈ 3.02 µM) | 0.6 µg/mL (≈ 2.35 µM) | 0.001 µg/mL (≈ 0.00392 µM) | 0.002 µg/mL (≈ 0.00784 µM) | 45 µg/mL (≈ 176 µM) | 0.48 µg/mL (≈ 1.88 µM) |  |  |  |  |  |  |  |  | 
2 | Nc1nc(O)c2ncn(C3C=CC(CO)C(O)C3)c2n1 (stereo in doubt; form 1) |  |  |  |  |  |  | 0.47 µg/mL (≈ 1.7 µM) | 0.6 µg/mL (≈ 2.16 µM) | 0.002 µg/mL (≈ 0.00721 µM) | 0.05 µg/mL (≈ 0.18 µM) | 2.1 µg/mL (≈ 7.57 µM) | 0.49 µg/mL (≈ 1.77 µM) | 3 µg/mL (≈ 10.8 µM) | 0.38 µg/mL (≈ 1.37 µM) | 
3 | Nc1nc2c(ncn2COCCO)c(=O)[nH]1 [ACYCLOVIR] | 16 µg/mL (≈ 71 µM) |  | 0.01 µg/mL (≈ 0.0444 µM) | 0.02 µg/mL (≈ 0.0888 µM) | > 50 µg/mL | 9.6 µg/mL (≈ 42.6 µM) |  |  |  |  |  |  |  |  | 16 µg/mL (≈ 71 µM)
4 | Nc1nc(O)c2ncn(C3C=CC(CO)C(O)C3)c2n1 (stereo in doubt; form 2) |  |  | 0.003 µg/mL (≈ 0.0108 µM) | 0.07 µg/mL (≈ 0.252 µM) | 3 µg/mL (≈ 10.8 µM) |  | 1.05 µg/mL (≈ 3.79 µM) | 1.5 µg/mL (≈ 5.41 µM) |  |  | 5.8 µg/mL (≈ 20.9 µM) | 1.2 µg/mL (≈ 4.33 µM) |  | 1.28 µg/mL (≈ 4.62 µM) | 
